# Test results taken from patent US20210212320A1, “FRUIT THINNING METHOD WITH 1-AMINOCYCLOPROPANE CARBOXYLIC ACID” (Valent BioSciences LLC, priority 2021, published 2021).
# Legend:
# [1] = test system: Sugar May peaches; assay: Effect of ACC concentration on fruit set of Sugar May peaches, applied at full bloom; type: in vivo, peach
# Text: (§1) Effect of ACC concentration on fruit set (number of fruit per shoot) of Sugar May peaches and Sweet Dream peaches when applied at full bloom
# [2] = test system: Sweet Dream peaches; assay: Effect of ACC concentration on fruit set of Sweet Dream peaches, applied at full bloom; type: in vivo, peach
# Text: as §1
# [3] = test system: Gala apples; assay: Effect of ACC concentration on modulating fruit set of Gala apples; type: in vivo, apple
# Text: Effect of ACC concentration on modulating fruit set (number of fruit per 100 flower clusters) of Gala apples when applied at petal fall (BBCH67), 10 mm fruit diameter, or 20 mm fruit diameter.
smiles,measurement,setting,value
"NC1(C(=O)O)CC1 [ACC, 1-aminocyclopropane carboxylic acid]",Number of Fruit Per Shoot (fruit set),[1]; ACC 300 parts per million,0.7 fruit per shoot
same,Number of Fruit Per Shoot (fruit set),[1]; ACC 600 parts per million,0.3 fruit per shoot
same,Number of Fruit Per Shoot (fruit set),[1]; ACC 900 parts per million,0.1 fruit per shoot
same,Number of Fruit Per Shoot (fruit set),[2]; ACC 300 parts per million,12 fruit per shoot
same,Number of Fruit Per Shoot (fruit set),[2]; ACC 600 parts per million,9 fruit per shoot
same,Number of Fruit Per Shoot (fruit set),[2]; ACC 900 parts per million,6 fruit per shoot
same,fruit set (number of fruit per 100 flower clusters),"[3]; ACC 224 parts per million, applied at 10 mm fruit diameter",125 fruit per 100 flower clusters
same,fruit set (number of fruit per 100 flower clusters),"[3]; ACC 224 parts per million, applied at 20 mm fruit diameter",89 fruit per 100 flower clusters
same,fruit set (number of fruit per 100 flower clusters),"[3]; ACC 224 parts per million, applied at petal fall (BBCH67)",117 fruit per 100 flower clusters
same,fruit set (number of fruit per 100 flower clusters),"[3]; ACC 450 parts per million, applied at 10 mm fruit diameter",108 fruit per 100 flower clusters
same,fruit set (number of fruit per 100 flower clusters),"[3]; ACC 450 parts per million, applied at 20 mm fruit diameter",46 fruit per 100 flower clusters
same,fruit set (number of fruit per 100 flower clusters),"[3]; ACC 450 parts per million, applied at petal fall (BBCH67)",96 fruit per 100 flower clusters
same,fruit set (number of fruit per 100 flower clusters),"[3]; ACC 900 parts per million, applied at 10 mm fruit diameter",63 fruit per 100 flower clusters
same,fruit set (number of fruit per 100 flower clusters),"[3]; ACC 900 parts per million, applied at 20 mm fruit diameter",12 fruit per 100 flower clusters
same,fruit set (number of fruit per 100 flower clusters),"[3]; ACC 900 parts per million, applied at petal fall (BBCH67)",72 fruit per 100 flower clusters
